Assay [1] addresses T1, Serine/threonine-protein kinase TAO1 (Homo sapiens) (UniProt Q7L7X3).
T1 sequence (whole entry): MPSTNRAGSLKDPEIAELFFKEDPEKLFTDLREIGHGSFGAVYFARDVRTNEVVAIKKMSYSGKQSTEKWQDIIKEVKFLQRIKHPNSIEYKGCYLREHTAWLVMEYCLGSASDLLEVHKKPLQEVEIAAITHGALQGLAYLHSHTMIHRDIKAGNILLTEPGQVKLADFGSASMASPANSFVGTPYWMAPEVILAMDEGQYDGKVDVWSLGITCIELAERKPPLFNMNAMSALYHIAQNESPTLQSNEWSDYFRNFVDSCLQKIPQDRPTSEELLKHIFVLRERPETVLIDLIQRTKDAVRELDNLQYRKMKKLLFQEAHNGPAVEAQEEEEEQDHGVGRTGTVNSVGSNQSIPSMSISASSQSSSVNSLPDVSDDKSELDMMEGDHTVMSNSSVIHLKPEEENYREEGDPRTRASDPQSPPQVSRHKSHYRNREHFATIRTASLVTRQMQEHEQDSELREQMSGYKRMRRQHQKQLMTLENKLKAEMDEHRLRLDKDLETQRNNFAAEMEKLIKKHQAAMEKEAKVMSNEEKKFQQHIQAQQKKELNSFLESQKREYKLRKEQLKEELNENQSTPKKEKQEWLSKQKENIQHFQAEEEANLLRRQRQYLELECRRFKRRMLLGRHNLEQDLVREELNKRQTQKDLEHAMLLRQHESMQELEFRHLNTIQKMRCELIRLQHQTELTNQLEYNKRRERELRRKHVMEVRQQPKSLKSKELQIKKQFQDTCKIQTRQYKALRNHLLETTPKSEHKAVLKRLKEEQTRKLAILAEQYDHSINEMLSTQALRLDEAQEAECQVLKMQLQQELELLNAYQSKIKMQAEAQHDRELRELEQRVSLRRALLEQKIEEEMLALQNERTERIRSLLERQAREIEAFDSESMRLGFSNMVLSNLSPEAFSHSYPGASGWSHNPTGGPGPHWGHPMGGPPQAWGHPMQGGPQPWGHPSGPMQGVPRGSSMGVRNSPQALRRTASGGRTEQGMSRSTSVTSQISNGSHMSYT
The experiment in a line: Selectivity interaction (LanthaScreen Eu Kinase Binding Assay) EUB0001632a TAOK1. The conditions noted are these: at 10 µM. In general terms: Time-resolved FRET reads energy transfer from a long-lived donor to a nearby acceptor.

In assay [2] the target is T2, Protein kinase C iota type (Homo sapiens) (UniProt P41743).
T2 sequence (whole entry): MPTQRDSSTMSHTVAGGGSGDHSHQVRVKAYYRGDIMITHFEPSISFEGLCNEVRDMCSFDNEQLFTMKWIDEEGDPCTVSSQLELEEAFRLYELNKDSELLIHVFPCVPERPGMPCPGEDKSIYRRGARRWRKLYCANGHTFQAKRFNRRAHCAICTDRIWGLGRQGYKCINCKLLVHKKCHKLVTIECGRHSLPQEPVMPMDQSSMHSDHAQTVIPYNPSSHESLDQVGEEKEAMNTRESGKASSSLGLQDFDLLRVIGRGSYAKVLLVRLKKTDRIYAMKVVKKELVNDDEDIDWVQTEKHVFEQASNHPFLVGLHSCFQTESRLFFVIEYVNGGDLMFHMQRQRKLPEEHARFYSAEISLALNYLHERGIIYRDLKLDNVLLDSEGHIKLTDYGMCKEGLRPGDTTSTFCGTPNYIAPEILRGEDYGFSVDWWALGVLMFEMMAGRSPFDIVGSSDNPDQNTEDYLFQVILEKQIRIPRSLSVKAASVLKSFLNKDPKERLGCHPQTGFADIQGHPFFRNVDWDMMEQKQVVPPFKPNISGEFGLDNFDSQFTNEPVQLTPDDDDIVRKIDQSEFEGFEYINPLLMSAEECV
The assay is described as follows: Selectivity interaction (ActivX KiNativ screen (kinase selectivity in THP-1 cell lysates)) EUB0000639a PRKCI. The conditions noted are these: lysate, at 0.04 µM. The class given is subcellular.

For assay [3], the target named is T3, Receptor-interacting serine/threonine-protein kinase 1 (Homo sapiens) (UniProt Q13546).
T3 sequence (whole entry): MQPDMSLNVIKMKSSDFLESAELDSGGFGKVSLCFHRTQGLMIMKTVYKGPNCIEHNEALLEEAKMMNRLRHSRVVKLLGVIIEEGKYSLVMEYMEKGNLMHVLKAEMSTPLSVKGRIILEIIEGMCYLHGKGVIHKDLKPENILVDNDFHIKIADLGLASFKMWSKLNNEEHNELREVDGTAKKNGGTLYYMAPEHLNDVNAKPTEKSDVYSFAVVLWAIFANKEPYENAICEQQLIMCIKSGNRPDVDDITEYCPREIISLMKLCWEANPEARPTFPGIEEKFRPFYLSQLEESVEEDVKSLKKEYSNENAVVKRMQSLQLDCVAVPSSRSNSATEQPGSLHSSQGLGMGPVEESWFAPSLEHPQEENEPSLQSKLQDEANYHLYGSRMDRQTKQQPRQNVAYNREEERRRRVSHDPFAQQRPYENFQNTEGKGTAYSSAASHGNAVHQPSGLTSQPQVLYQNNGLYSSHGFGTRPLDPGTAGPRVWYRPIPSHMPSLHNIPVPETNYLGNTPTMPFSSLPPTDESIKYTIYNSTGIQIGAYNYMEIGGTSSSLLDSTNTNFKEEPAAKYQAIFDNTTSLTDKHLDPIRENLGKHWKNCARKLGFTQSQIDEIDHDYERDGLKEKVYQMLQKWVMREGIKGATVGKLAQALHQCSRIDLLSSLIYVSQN
The assay is described as follows: Selectivity interaction (KinomeScan (DiscoverX)) EUB0001049a RIPK1. The conditions noted are these: at 1 µM.

With `Cn1cc(-n2cnc3c(NCc4nc5cc(Cl)c(Cl)cc5[nH]4)nc(N4CCOCC4)nc32)cn1`, in assay [1], the % of inhibition came to 31.8%.
With `CC[C@@H]1[C@H](F)C(=O)N[C@@H]1COc1nccc2cc(C(N)=O)c(OC)cc12` [ZIMLOVISERTIB], the % of inhibition in assay [2] is -0.9%.
`COc1cc(Nc2nc(C)cc(-c3cnn4nc(OC)ccc34)n2)cc(C(F)(F)F)c1` had a % of control in assay [3] of 93%.

For the origin of these results see ChEMBL document CHEMBL5465560, “Selectivity Literature for EUbOPEN Chemogenomic Library” (2024).
